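Following 48 hours of exposure in 96-well plates, responses at five concentrations were used to interpolate endpoints linearly. At the TGI there is no net growth.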
How the values were obtained:
Test in all cases: inhibition of tumour cell growth, NCI panel, 48 h
[1] = test system: CCRF-CEM leukemia
[2] = test system: UACC-62 melanoma
[3] = test system: NCI-H23 lung
[4] = test system: MOLT-4 leukemia
[5] = test system: UACC-257 melanoma
[6] = test system: SK-MEL-5 melanoma
[7] = test system: HOP-62 NSCLC
[8] = test system: OVCAR-4 ovarian
[9] = test system: HOP-92 NSCLC
[10] = test system: MALME-3M melanoma
[11] = test system: SNB-19 CNS
[12] = test system: KM12 colon
[13] = test system: IGROV1 ovarian
[14] = test system: SR leukemia
[15] = test system: RXF 393 renal
[16] = test system: 786-0 renal
[17] = test system: SK-MEL-28 melanoma
[18] = test system: HCT-15 colon
[19] = test system: OVCAR-3 ovarian
[20] = test system: SW-620 colon
[21] = test system: MDA-MB-435
[22] = test system: HCT-116 colon
[23] = test system: EKVX NSCLC
[24] = test system: SF-295 CNS
[25] = test system: NCI/ADR-RES ovarian
[26] = test system: K-562 leukemia
[27] = test system: CAKI-1 renal
[28] = test system: SK-OV-3 ovarian
[29] = test system: SK-MEL-2 melanoma
[30] = test system: OVCAR-8 ovarian
[31] = test system: SN12C renal
[32] = test system: NCI-H522 lung
[33] = test system: MDA-MB-231 breast
[34] = test system: T-47D breast
[35] = test system: PC-3 prostate
[36] = test system: NCI-H226 lung
[37] = test system: U251 CNS
[38] = test system: HT29 colon
[39] = test system: RPMI-8226 leukemia
[40] = test system: OVCAR-5 ovarian
[41] = test system: A498 renal
[42] = test system: SF-268 CNS
[43] = test system: BT-549 breast
[44] = test system: ACHN renal
[45] = test system: A549 NSCLC
[46] = test system: DU-145 prostate
[47] = test system: COLO 205 colon
[48] = test system: HS 578T breast
[49] = test system: TK-10 renal
[50] = test system: MDA-N
[51] = test system: SNB-75 CNS
[52] = test system: M14 melanoma
[53] = test system: UO-31 renal
[54] = test system: LOX IMVI melanoma
[55] = test system: NCI-H460 lung
[56] = test system: SF-539 CNS
[57] = test system: MCF7 breast
[58] = test system: HL-60(TB) leukemia
[59] = test system: HCC-2998 colon

In the case of Cc1ccc(S(=O)(=O)N2CC2CCCCC=O)cc1 (stereo unspecified), the TGI [1] is reported as 55.1 µM, the TGI [2] is reported as > 100 µM and the TGI [3] is reported as > 100 µM. The TGI [4] was > 100 µM, the TGI [5] was > 100 µM and the TGI [6] was > 100 µM. For the same compound, the TGI [7] was > 100 µM, the TGI [8] was > 100 µM and the TGI [9] was > 100 µM. The TGI [10] was > 100 µM, the TGI [11] was > 100 µM and the TGI [12] was > 100 µM. The TGI [13] was > 100 µM, the TGI [14] was 37.2 µM and the TGI [15] was > 100 µM. For the same compound, the TGI [16] was > 100 µM, the TGI [17] was > 100 µM and the TGI [18] was > 100 µM. For the same compound, the TGI [19] was > 100 µM, the TGI [20] was > 100 µM and the TGI [21] was > 100 µM. The TGI [22] was > 100 µM, the TGI [23] was > 100 µM and the TGI [24] was > 100 µM. For the same compound, the TGI [25] was > 100 µM, the TGI [26] was > 100 µM and the TGI [27] was > 100 µM. The TGI [28] was > 100 µM, the TGI [29] was > 100 µM and the TGI [30] was > 100 µM. For the same compound, the TGI [31] was > 100 µM, the TGI [32] was > 100 µM and the TGI [33] was > 100 µM. The TGI [34] was > 100 µM, the TGI [35] was > 100 µM and the TGI [36] was > 100 µM. For the same compound, the TGI [37] was > 100 µM, the TGI [38] was > 100 µM and the TGI [39] was > 100 µM. The TGI [40] was > 100 µM, the TGI [41] was > 100 µM and the TGI [42] was > 100 µM. For the same compound, the TGI [43] was > 100 µM, the TGI [44] was > 100 µM and the TGI [45] was > 100 µM. The TGI [46] was > 100 µM, the TGI [47] was > 100 µM and the TGI [48] was > 100 µM. For the same compound, the TGI [49] was > 100 µM, the TGI [50] was > 100 µM and the TGI [51] was > 100 µM. For the same compound, the TGI [52] was > 100 µM, the TGI [53] was > 100 µM and the TGI [54] was 56 µM.

For CC(C)C(NC(=O)Oc1ccccc1)C(=O)NC1c2c(Br)sc(Br)c2C(=O)C1O (stereo unspecified), the TGI [1] was 15.6 µM, the TGI [2] was 8.08 µM and the TGI [3] was 8.41 µM. For the same compound, the TGI [55] was 8.64 µM, the TGI [4] was > 25 µM and the TGI [5] was 8.66 µM. For the same compound, the TGI [6] was 8.36 µM, the TGI [8] was 6.41 µM and the TGI [10] was 15.5 µM. The TGI [11] was 10.4 µM, the TGI [12] was > 25 µM and the TGI [13] was 8.11 µM. The TGI [15] was 7.25 µM, the TGI [16] was > 25 µM and the TGI [17] was 8.67 µM. The TGI [18] was 8.39 µM, the TGI [19] was 8.21 µM and the TGI [20] was 11.1 µM. The TGI [21] was 13.1 µM, the TGI [22] was 7.34 µM and the TGI [23] was 15.2 µM. The TGI [56] was > 25 µM, the TGI [24] was > 25 µM and the TGI [25] was 16.5 µM. The TGI [26] was 17.4 µM, the TGI [27] was 14.1 µM and the TGI [57] was > 25 µM. The TGI [28] was > 25 µM, the TGI [29] was 17.7 µM and the TGI [30] was 9.15 µM. The TGI [31] was 10.8 µM, the TGI [58] was > 25 µM and the TGI [33] was 9.41 µM. The TGI [34] was 16.7 µM, the TGI [35] was > 25 µM and the TGI [36] was > 25 µM. For the same compound, the TGI [37] was 9.53 µM, the TGI [38] was 7.71 µM and the TGI [40] was 15.4 µM. The TGI [59] was 7.68 µM, the TGI [41] was > 25 µM and the TGI [42] was 14.1 µM. The TGI [43] was 8.16 µM, the TGI [44] was 10.2 µM and the TGI [45] was > 25 µM. The TGI [46] was > 25 µM, the TGI [47] was 14.4 µM and the TGI [48] was > 25 µM. The TGI [49] was > 25 µM, the TGI [50] was > 25 µM and the TGI [51] was > 25 µM. For the same compound, the TGI [52] was 11.4 µM, the TGI [53] was > 25 µM and the TGI [54] was 8.91 µM.

In the case of O=[N+]([O-])c1ccc2nc(Nc3ccccc3)c(Nc3ccccc3)nc2c1, the TGI [1] is reported as > 100 µM, the TGI [2] is reported as 2.23 µM and the TGI [3] is reported as 4.26 µM. The TGI [55] was 1.61 µM, the TGI [4] was > 100 µM and the TGI [5] was 5.1 µM. It also gave a TGI [6] of 2.82 µM, a TGI [7] of 2.45 µM and a TGI [8] of 11.3 µM. The TGI [9] was 4.88 µM, the TGI [10] was 4.79 µM and the TGI [11] was 7.7 µM. The TGI [12] was 2.78 µM, the TGI [13] was 4.98 µM and the TGI [14] was > 100 µM. It also gave a TGI [15] of 6.6 µM, a TGI [16] of 7.83 µM and a TGI [17] of 8.4 µM. For the same compound, the TGI [18] was 2.18 µM, the TGI [20] was 3.46 µM and the TGI [21] was 4.4 µM. For the same compound, the TGI [22] was 1.82 µM, the TGI [23] was 6.22 µM and the TGI [56] was 2.98 µM. The TGI [24] was 2.4 µM, the TGI [25] was 6 µM and the TGI [26] was > 100 µM. For the same compound, the TGI [27] was 11.2 µM, the TGI [28] was 2.88 µM and the TGI [29] was 4.49 µM. The TGI [30] was 6.45 µM, the TGI [31] was 2.67 µM and the TGI [58] was 40.4 µM. It also gave a TGI [32] of 1.33 µM, a TGI [33] of 2.64 µM and a TGI [34] of 8.63 µM. For the same compound, the TGI [35] was 10.3 µM, the TGI [36] was 5.1 µM and the TGI [37] was 1.99 µM. For the same compound, the TGI [38] was 1.53 µM, the TGI [39] was > 100 µM and the TGI [40] was 6.93 µM. The TGI [59] was 2.65 µM, the TGI [41] was 11.6 µM and the TGI [42] was 7.91 µM. The TGI [44] was 3.11 µM, the TGI [45] was 2.36 µM and the TGI [46] was 4.6 µM. The TGI [47] was 2.97 µM, the TGI [48] was 8.75 µM and the TGI [49] was 6.84 µM. For the same compound, the TGI [50] was 2.23 µM, the TGI [51] was 5.25 µM and the TGI [53] was 2.57 µM. The TGI [54] was 3.14 µM.

For Cc1ccc(-[n+]2cc([O-])on2)cc1, the TGI [1] was > 100 µM, the TGI [2] was > 100 µM and the TGI [3] was > 100 µM. The TGI [55] was > 100 µM, the TGI [4] was > 100 µM and the TGI [5] was > 100 µM. For the same compound, the TGI [6] was > 100 µM, the TGI [7] was > 100 µM and the TGI [8] was > 100 µM. For the same compound, the TGI [9] was > 100 µM, the TGI [10] was > 100 µM and the TGI [11] was > 100 µM. The TGI [12] was > 100 µM, the TGI [13] was > 100 µM and the TGI [14] was > 100 µM. For the same compound, the TGI [15] was > 100 µM, the TGI [16] was > 100 µM and the TGI [17] was > 100 µM. The TGI [18] was > 100 µM, the TGI [19] was > 100 µM and the TGI [20] was > 100 µM. For the same compound, the TGI [21] was > 100 µM, the TGI [22] was > 100 µM and the TGI [23] was > 100 µM. For the same compound, the TGI [24] was > 100 µM, the TGI [25] was > 100 µM and the TGI [26] was > 100 µM. For the same compound, the TGI [27] was > 100 µM, the TGI [29] was > 100 µM and the TGI [30] was > 100 µM. For the same compound, the TGI [31] was > 100 µM, the TGI [58] was > 100 µM and the TGI [32] was > 100 µM. The TGI [33] was > 100 µM, the TGI [34] was > 100 µM and the TGI [35] was > 100 µM. For the same compound, the TGI [36] was > 100 µM, the TGI [37] was > 100 µM and the TGI [38] was > 100 µM. The TGI [39] was > 100 µM, the TGI [40] was > 100 µM and the TGI [41] was > 100 µM. The TGI [42] was > 100 µM, the TGI [43] was > 100 µM and the TGI [44] was > 100 µM. The TGI [45] was > 100 µM, the TGI [46] was > 100 µM and the TGI [48] was > 100 µM. The TGI [49] was > 100 µM, the TGI [50] was > 100 µM and the TGI [52] was > 100 µM. The TGI [53] was > 100 µM and the TGI [54] was > 100 µM.
